In data set [1] the target is T1, ICL (Mycobacterium tuberculosis, UniProt P9WKK7).
T1 sequence (P9WKK7 1-428): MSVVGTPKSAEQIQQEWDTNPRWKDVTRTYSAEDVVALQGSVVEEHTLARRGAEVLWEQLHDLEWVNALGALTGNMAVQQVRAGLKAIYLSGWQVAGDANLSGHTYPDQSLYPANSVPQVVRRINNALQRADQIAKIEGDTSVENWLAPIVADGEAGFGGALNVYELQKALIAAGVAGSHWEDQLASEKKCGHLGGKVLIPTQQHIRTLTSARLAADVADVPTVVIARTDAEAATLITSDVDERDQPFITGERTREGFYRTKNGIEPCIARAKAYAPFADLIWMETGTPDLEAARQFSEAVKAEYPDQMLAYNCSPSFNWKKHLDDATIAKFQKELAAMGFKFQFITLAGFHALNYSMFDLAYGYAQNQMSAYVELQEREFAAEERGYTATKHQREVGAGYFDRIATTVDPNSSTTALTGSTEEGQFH
The following applies: read-out: IC50 against ICL; ref Muñoz-Elías and McKinney, 2005; cited from earlier work.

The next data set relates to H37Rv. Put plainly: MABA MIC99 determination, H37Rv strain. The class given is cell-based, Mycobacterium tuberculosis.
Data set [2] is classed as in vitro ADME. The note with it: equilibrium dialysis.
Another data set deals with mc^2-7000 Mtb. The experiment in a line: MABA MIC99 determination, mc^2-7000 strain. The class given is cell-based, Mycobacterium tuberculosis. The note with it: for MIC99 mc^2-7000 Mtb acetate: M9 media with acetate; for MIC99: Mycobacterium tuberculosis.
The next data set is described as follows: UV absorbance peak. The following applies: UV absorbance peak in solution.
Data set [3] in a line: Compound stability in solution. The note with it: stability in cell growth media or buffer solutions.
A further data set deals with M. tuberculosis. The class given is in vivo. The following applies: target dose 30 mg/kg, once a day, 9 days post-infection.
Data set [4] addresses T1, ICL. Put plainly: Isocitrate lyase. The class given is biochemical. The following applies: single concentration point of 40 μg/ml.
The mark [5] stands for this setting: read-out: MIC99 mc^2-7000 Mtb acetate.
Where [6] appears, read: read-out: MIC99 mc^2-7000 Mtb dextrose.

In general, IC50 refers to the midpoint of a concentration-inhibition curve. One may read the MIC99 as an inhibitory concentration at the 99% level, which refers to growth in some studies and to a panel of isolates in others.

In brackets after ≈: the same amount, converted by molar mass. Read-outs that look alike come from different tables or passages of the source.

As to `O=C(O)CC[N+](=O)[O-]` [3-nitropropionate], at ICL [1], the IC50 is 3000 nM.
For the compound `Cc1ccccc1C(=O)CC(=O)C(=O)O` [Compound 1], in the data set on H37Rv (acetate), the “H37Rv MIC99 on acetate” value amounted to 16 µM. Moreover, the “H37Rv MIC99 on dextrose” value with H37Rv (dextrose) was found to be 31 µM. Further, the “Mouse plasma protein binding” value in data set [2] worked out at 70.7 ± 1.8%. In the data set with mc^2-7000 Mtb, the “MIC99 mc^2-7000 Mtb dextrose” value came to 200 µM (≈ 41.2 µg/mL) and the “MIC99 mc^2-7000 Mtb acetate” value is >200 µM. The compound further displayed a λmax in the data set “UV absorbance peak” of 326 nM. In data set [3], this compound had a Half-life of 720 h.
As for `O=C(O)C(=O)CC(=O)c1ccccc1F` [Compound 2], in the data set with mc^2-7000 Mtb, the “MIC99 mc^2-7000 Mtb dextrose” value stood at 200 µM (≈ 42 µg/mL) and the “MIC99 mc^2-7000 Mtb acetate” value was >200 µM. The compound also returned a λmax in the data set “UV absorbance peak” of 333 nM. Further, in [3], the Half-life was 288 h.
For `O=C(O)C(=O)CC(=O)c1ccccc1Cl` [Compound 3] the same measures were 200 µM (≈ 45.3 µg/mL), >200 µM, 324 nM and 840 h.
For `O=C(O)C(=O)CC(=O)c1cccc(Cl)c1` [Compound 6] the same measures were 25 µM (≈ 5.67 µg/mL), 25 µM (≈ 5.67 µg/mL), 341 nM and 170 h.
For `Cc1ccc(C(=O)CC(=O)C(=O)O)cc1` [Compound 8] the same measures were 100 µM (≈ 20.6 µg/mL), 50 µM (≈ 10.3 µg/mL), 340 nM and 190 h.
Take `O=C(O)C(=O)CC(=O)c1ccc(Br)cc1` [Compound 9]: in the data set on mc^2-7000 Mtb, the “MIC99 mc^2-7000 Mtb dextrose” value worked out at 25 µM (≈ 6.78 µg/mL) and the “MIC99 mc^2-7000 Mtb acetate” value stood at 50 µM (≈ 13.6 µg/mL). Also, the λmax in the data set “UV absorbance peak” came to 345 nM. The Half-life in data set [3] was 170 h.
On to `COc1c(N2C[C@@H]3CCCN[C@@H]3C2)c(F)cc2c(=O)c(C(=O)O)cn(C3CC3)c12` [Moxifloxacin], for which the “Decrease in log10 CFU in lungs” value in the data set with M. tuberculosis was 3.07 log10 CFU.
On to `O=C(O)/C(O)=C/C(=O)c1ccccc1` [PDKA, (Z)-2-hydroxy-4-oxo-4-phenylbut-2-enoic acid], for which the Half-life in the data set “physchem” is ~72 h. Also, the “activity against ICL” value on ICL [4] was “inactive”. In addition, the MIC99 with mc^2-7000 Mtb (setting [5]) worked out at 50 µM (≈ 9.61 µg/mL); in the data set on mc^2-7000 Mtb (setting [6]), 25 µM (≈ 4.8 µg/mL). For the same compound, the λmax in the data set “UV absorbance peak” is on record as 340 nM.
Turning to `CO[C@H]1/C=C/O[C@@]2(C)Oc3c(C)c(O)c4c(O)c(c(/C=N/N5CCN(C)CC5)c(O)c4c3C2=O)NC(=O)/C(C)=C\C=C\[C@H](C)[C@H](O)[C@@H](C)[C@@H](O)[C@@H](C)[C@H](OC(C)=O)[C@@H]1C` [Rifampicin, reference compound], the figures for the MIC99 with mc^2-7000 Mtb (setting [5]) and in the data set on mc^2-7000 Mtb (setting [6]) were 0.25 µM (≈ 0.206 µg/mL) and 0.125 µM (≈ 0.103 µg/mL), respectively.

(Values after PMC3530165 (Chemistry & biology, 2012).)
